This is an account of results in ChEMBL document CHEMBL3045948, “Design, synthesis, and potential CNS activity of some new bioactive 1-(4-substituted-phenyl)-3-(4-oxo-2-methyl-4H-quinazolin-3-yl)-urea” (Med Chem Res, 2011).

Activity calls are given as the source filed them. The rule behind the calls is not given here.

Data set [1] deals with Mus musculus. The data set is described as follows: Sedative-hypnotic activity in Mus musculus (mouse) assessed as inhibition of locomotory activity at 100 mg/kg, ip measured after 1 hr by actophotometer test. Conditions: route intraperitoneal. It counts as functional.
In data set [2] the test system is Mus musculus. The data set is described as follows: Anticonvulsant activity in Mus musculus (mouse) assessed as protection against subcutaneous pentyleneterazole-induced seizure at 300 mg/kg, ip measured after 0.5 hr. Type of data set: functional, organism-based. Also on record: dose 300 mg/kg.
The subject of data set [3] is Mus musculus. The data set is described as follows: Anticonvulsant activity in Mus musculus (mouse) assessed as protection against subcutaneous pentyleneterazole-induced seizure at 300 mg/kg, ip measured after 4 hr. On the set-up: dose 300 mg/kg. It counts as functional, organism-based.
Data set [4] has as its system Mus musculus. The data set can be described thus: Anticonvulsant activity in Mus musculus (mouse) assessed as protection against maximal electroshock-induced seizure at 300 mg/kg, ip measured after 0.5 hr. Type of data set: functional, organism-based. On the set-up: dose 300 mg/kg. In general terms: Protection in the maximal electroshock model is a classic sign of anticonvulsant action.

Data set [5] relates to Mus musculus. The data set can be described thus: Anticonvulsant activity in Mus musculus (mouse) assessed as protection against maximal electroshock-induced seizure at 300 mg/kg, ip measured after 4 hr. Also on record: dose 300 mg/kg. It counts as functional, organism-based.
The nature of data set [6]: (§1) Neurotoxicity in ip dosed Mus musculus (mouse) after 4 hr by rotorod test. It counts as toxicity, organism-based. Conditions: in vivo. A general note: The rotarod test checks motor coordination on a turning rod.
The next data set relates to Rattus norvegicus. The data set is described as follows: CNS depressant activity in Rattus norvegicus Wistar (rat) assessed as immobility time at 100 mg/kg, ip measured after 60 min by forced swim test (reference value: 45.6 +/- 19.45 to 180.97 +/- 14.15 sec). It counts as functional. Conditions: route intraperitoneal.
Data set [7] has as its system Mus musculus. The data set can be described thus: (§2) Neurotoxicity in ip dosed Mus musculus (mouse) after 0.5 hr by rotorod test. It counts as toxicity, organism-based. Conditions: in vivo, 0.5 h.
Data set [8] is described as follows: as §2. It counts as toxicity, organism-based. Conditions: in vivo.
Data set [9] relates to Mus musculus. The data set is described as follows: Anticonvulsant activity in ip dosed Mus musculus (mouse) assessed as protection against maximal electroshock-induced seizure measured after 0.5 hr. The following applies: read-out: MED. Type of data set: functional.
Data set [10] concerns Mus musculus. The data set is described as follows: Anticonvulsant activity in ip dosed Mus musculus (mouse) assessed as protection against subcutaneous pentyleneterazole-induced seizure measured after 0.5 hr. Type of data set: functional. Conditions: read-out: MED.
In data set [11] the test system is Mus musculus. The data set can be described thus: Anticonvulsant activity in ip dosed Mus musculus (mouse) assessed as protection against maximal electroshock-induced seizure measured after 4 hr. The following applies: read-out: MED. It counts as functional.
In data set [12] the test system is Mus musculus. The data set can be described thus: Anticonvulsant activity in ip dosed Mus musculus (mouse) assessed as protection against subcutaneous pentyleneterazole-induced seizure measured after 4 hr. Type of data set: functional. Conditions: read-out: MED.
Data set [13] concerns Mus musculus. Described as §1. Type of data set: toxicity, organism-based. The following applies: in vivo, 4 h.

Consider `Cc1nc2ccccc2c(=O)n1NC(=O)Nc1ccccc1`, for which the inhibition in vivo (usually the percentage by which the read-out fell short of the control) at 100 mg/kg with Mus musculus [1] stood at 50%. Moreover, the result in the data set on Mus musculus [2], in the data set with Mus musculus [3], in the data set on Mus musculus [4] and with Mus musculus [5] was inactive. For the same compound, in data set [6], the MTD at 4 h was determined as 300 mg/kg. Also, the Time in the data set with Rattus norvegicus is given as 130.56 s. In the data set on Mus musculus [7], this compound returned an MTC of 300 mg/kg.
For the compound `Cc1cccc(NC(=O)Nn2c(C)nc3ccccc3c2=O)c1`, the inhibition in vivo at 100 mg/kg in the data set on Mus musculus [1] came out at 51%. Besides, the result in the data set on Mus musculus [2], in the data set with Mus musculus [3], in the data set with Mus musculus [4] and in the data set on Mus musculus [5] was inactive. In data set [6], this compound displayed an MTD at 4 h of 300 mg/kg. Also, the Time with Rattus norvegicus was 218.29 s. In addition, the MTD at 0.5 h in data set [8] worked out at 300 mg/kg.
Turning to `Cc1nc2ccccc2c(=O)n1NC(=O)Nc1ccc(Br)cc1`, the inhibition in vivo at 100 mg/kg in the data set with Mus musculus [1] turned out to be 51%. In addition, the outcome with Mus musculus [3] and in the data set with Mus musculus [5] was inactive. Further, the minimal effective dose with Mus musculus [9] and in the data set on Mus musculus [10] was 300 mg/kg in each case. The same compound showed an MTD at 4 h in data set [6] of 300 mg/kg. Also, the Time in the data set on Rattus norvegicus came to 70.63 s. This compound displayed an MTC in the data set on Mus musculus [7] of 300 mg/kg.
In the case of `NC(=O)N1c2ccccc2C=Cc2ccccc21` [CARBAMAZEPINE], the minimal effective dose in the data set with Mus musculus [11] amounted to 100 mg/kg; in the data set on Mus musculus [9], 30 mg/kg; with Mus musculus [12], 300 mg/kg; in the data set with Mus musculus [10] it was 100 mg/kg. Also, the MTC with Mus musculus [13] turned out to be 300 mg/kg; in the data set on Mus musculus [7] it was 100 mg/kg. Besides, the Time with Rattus norvegicus amounted to 240.3 s.
Consider `CCC1(C)CC(=O)NC1=O` (stereo unspecified) [ETHOSUXIMIDE], for which the result in the data set with Mus musculus [3], with Mus musculus [4] and in the data set on Mus musculus [5] was inactive. Moreover, the minimal effective dose in the data set with Mus musculus [10] came out at 300 mg/kg.
`Cc1ccc(NC(=O)Nn2c(C)nc3ccccc3c2=O)cc1`: the inhibition in vivo at 100 mg/kg in the data set with Mus musculus [1] stood at 52%. Further, the result in the data set with Mus musculus [2], with Mus musculus [3], with Mus musculus [4] and in the data set with Mus musculus [5] was inactive. The MTD at 4 h in [6] stood at 300 mg/kg. For the same compound, in the data set with Rattus norvegicus, the Time turned out to be 210.29 s. Also, the MTD at 0.5 h in [8] came to 300 mg/kg.
Take `COc1ccc(NC(=O)Nn2c(C)nc3ccccc3c2=O)cc1`: the inhibition in vivo at 100 mg/kg in the data set with Mus musculus [1] came out at 42%. Also, the outcome in the data set on Mus musculus [2], in the data set on Mus musculus [3], in the data set with Mus musculus [4] and in the data set on Mus musculus [5] was inactive. Besides, in [6], the MTD at 4 h worked out at 300 mg/kg. Moreover, in the data set on Rattus norvegicus, the Time amounted to 202.29 s. In data set [8], this compound displayed an MTD at 0.5 h of 300 mg/kg.
Take `CCCC(CCC)C(=O)[O-].[Na+]` [VALPROATE SODIUM]: the result in the data set on Mus musculus [3], with Mus musculus [4] and in the data set on Mus musculus [5] was inactive. Further, the minimal effective dose in the data set on Mus musculus [10] is 300 mg/kg. Also, the MTD at 4 h in data set [6] turned out to be 300 mg/kg. Further, the MTD at 0.5 h in data set [8] came out at 300 mg/kg.
Take `Cc1nc2ccccc2c(=O)n1NC(=O)Nc1ccc([N+](=O)[O-])cc1`: the inhibition in vivo at 100 mg/kg in the data set on Mus musculus [1] came to 40%. Further, the outcome with Mus musculus [2], with Mus musculus [3], with Mus musculus [4] and in the data set with Mus musculus [5] was inactive. In data set [6], this compound displayed an MTD at 4 h of 300 mg/kg. The Time with Rattus norvegicus was found to be 190.29 s. This compound returned an MTD at 0.5 h in data set [8] of 300 mg/kg.
In the case of `Cc1nc2ccccc2c(=O)n1NC(=O)Nc1ccc(I)cc1`, in the data set on Mus musculus [1], the inhibition in vivo at 100 mg/kg is 53%. The result with Mus musculus [2], in the data set on Mus musculus [3], in the data set with Mus musculus [4] and in the data set with Mus musculus [5] was inactive. In data set [6], the MTD at 4 h stood at 300 mg/kg. The Time in the data set with Rattus norvegicus stood at 194.05 s. The same compound showed an MTD at 0.5 h in [8] of 300 mg/kg.
As for `CCC1(c2ccccc2)C(=O)NC(=O)NC1=O` [PHENOBARBITAL], the minimal effective dose in the data set on Mus musculus [11] was found to be 30 mg/kg; in the data set on Mus musculus [9] it was 100 mg/kg; in the data set on Mus musculus [12], 300 mg/kg; in the data set with Mus musculus [10], 30 mg/kg. Also, the values for the MTC with Mus musculus [13] and with Mus musculus [7] were 300 mg/kg and 100 mg/kg, respectively.
On to `O=C1NC(=O)C(c2ccccc2)(c2ccccc2)N1` [PHENYTOIN], for which the inhibition in vivo at 100 mg/kg in the data set with Mus musculus [1] was determined as 70%. Also, the result in the data set on Mus musculus [2] and with Mus musculus [3] was inactive. Besides, the minimal effective dose in the data set on Mus musculus [11] and with Mus musculus [9] was 30 mg/kg in each case. Besides, the MTC with Mus musculus [13] and in the data set on Mus musculus [7] was 100 mg/kg each time.
In the case of `CCOc1ccc(NC(=O)Nn2c(C)nc3ccccc3c2=O)cc1`, the inhibition in vivo at 100 mg/kg in the data set with Mus musculus [1] turned out to be 45%. Moreover, the result in the data set with Mus musculus [2], in the data set with Mus musculus [3], in the data set on Mus musculus [4] and with Mus musculus [5] was inactive. Besides, the MTC with Mus musculus [13] and in the data set with Mus musculus [7] was 300 mg/kg throughout. In the data set on Rattus norvegicus, the Time was found to be 198.29 s.
In the case of `Cc1ccccc1NC(=O)Nn1c(C)nc2ccccc2c1=O`, in the data set on Mus musculus [1], the inhibition in vivo at 100 mg/kg amounted to 51%. Further, the result in the data set with Mus musculus [2], in the data set with Mus musculus [3], in the data set on Mus musculus [4] and in the data set with Mus musculus [5] was inactive. This compound had an MTD at 4 h in data set [6] of 300 mg/kg. Also, in the data set with Rattus norvegicus, the Time is recorded as 226.29 s. In data set [8], this compound showed an MTD at 0.5 h of 300 mg/kg.
`Cc1nc2ccccc2c(=O)n1NC(=O)Nc1ccc(F)cc1`: the inhibition in vivo at 100 mg/kg in the data set on Mus musculus [1] was determined as 45%. Besides, the result with Mus musculus [2], with Mus musculus [3], in the data set with Mus musculus [4] and in the data set with Mus musculus [5] was inactive. The MTD at 4 h in data set [6] was determined as 300 mg/kg. Also, the Time in the data set on Rattus norvegicus came to 188.16 s. The MTD at 0.5 h in data set [8] stood at 300 mg/kg.
On to `Cc1nc2ccccc2c(=O)n1NC(=O)Nc1ccc(Cl)cc1`, for which the inhibition in vivo at 100 mg/kg with Mus musculus [1] was determined as 48%. Moreover, the outcome in the data set with Mus musculus [3] and with Mus musculus [5] was inactive. Further, the minimal effective dose in the data set with Mus musculus [9] and in the data set on Mus musculus [10] was 300 mg/kg in each case. For the same compound, the MTC in the data set on Mus musculus [13] and in the data set with Mus musculus [7] was 300 mg/kg each time. Further, in the data set with Rattus norvegicus, the Time turned out to be 204.7 s.
For `CCc1ccc(NC(=O)Nn2c(C)nc3ccccc3c2=O)cc1`, the inhibition in vivo at 100 mg/kg with Mus musculus [1] is 53%. For the same compound, in the data set on Mus musculus [3], the outcome was inactive. Moreover, the minimal effective dose with Mus musculus [11], in the data set on Mus musculus [9] and in the data set with Mus musculus [10] was 300 mg/kg throughout. For the same compound, in data set [6], the MTD at 4 h was 300 mg/kg. Further, the Time in the data set with Rattus norvegicus worked out at 208.29 s. Moreover, the MTD at 0.5 h in [8] was determined as 300 mg/kg.
